Test results: the kinase profiling compilation of Christmann-Franck et al. (2016)

What was measured:
Test in all cases: radiometric filter-binding kinase assay
[1] = molecular target: SYK (human) (UniProt P43405)
[2] = molecular target: TTK (human) (UniProt P33981)
[3] = molecular target: HIPK1 (human) (UniProt Q86Z02)
[4] = molecular target: MAP3K1 (human) (UniProt Q13233)
[5] = molecular target: AURKA (human) (UniProt O14965)
[6] = molecular target: IGF1R (human) (UniProt P08069)
[7] = tested on: AKT2 (human), P31751 [S474D]
[8] = molecular target: SRC (human) (UniProt P12931)
[9] = molecular target: CSNK1D (human) (UniProt P48730)
[10] = molecular target: FGFR1 (human) (UniProt P11362)
[11] = molecular target: MAP3K5 (human) (UniProt Q99683)
[12] = molecular target: MARK4 (human) (UniProt Q96L34)
[13] = molecular target: HIPK2 (human) (UniProt Q9H2X6)
[14] = molecular target: MAPK13 (human) (UniProt O15264)
[15] = molecular target: MAP3K9 (human) (UniProt P80192)
[16] = molecular target: MAPK10 (human) (UniProt P53779)
[17] = molecular target: EPHB4 (human) (UniProt P54760)
[18] = molecular target: MYLK (human) (UniProt Q15746)
[19] = molecular target: MAPK9 (human) (UniProt P45984)
[20] = molecular target: STK11 CAB39 STRADA (human) (UniProt Q9Y376+Q7RTN6+Q15831)
[21] = molecular target: AURKB (human) (UniProt Q96GD4)
[22] = molecular target: TAOK1 (human) (UniProt Q7L7X3)
[23] = molecular target: MAP2K2 (human) (UniProt P36507)
[24] = molecular target: PKN2 (human) (UniProt Q16513)
[25] = molecular target: GSK3B (human) (UniProt P49841)
[26] = molecular target: EEF2K (human) (UniProt O00418)
[27] = molecular target: MELK (human) (UniProt Q14680)
[28] = molecular target: FLT1 (human) (UniProt P17948)
[29] = molecular target: PRKCZ (human) (UniProt Q05513)
[30] = molecular target: EPHB1 (human) (UniProt P54762)
[31] = molecular target: GCK (human) (UniProt Q12851)
[32] = molecular target: MAPK1 (human) (UniProt P28482)
[33] = molecular target: YES1 (human) (UniProt P07947)
[34] = molecular target: CHEK1 (human) (UniProt O14757)
[35] = tested on: PAK2 (human), Q13177 [T402E]
[36] = molecular target: PAK6 (human) (UniProt Q9NQU5)

Sequence of FLT1 (human) (P17948 whole entry, looked up): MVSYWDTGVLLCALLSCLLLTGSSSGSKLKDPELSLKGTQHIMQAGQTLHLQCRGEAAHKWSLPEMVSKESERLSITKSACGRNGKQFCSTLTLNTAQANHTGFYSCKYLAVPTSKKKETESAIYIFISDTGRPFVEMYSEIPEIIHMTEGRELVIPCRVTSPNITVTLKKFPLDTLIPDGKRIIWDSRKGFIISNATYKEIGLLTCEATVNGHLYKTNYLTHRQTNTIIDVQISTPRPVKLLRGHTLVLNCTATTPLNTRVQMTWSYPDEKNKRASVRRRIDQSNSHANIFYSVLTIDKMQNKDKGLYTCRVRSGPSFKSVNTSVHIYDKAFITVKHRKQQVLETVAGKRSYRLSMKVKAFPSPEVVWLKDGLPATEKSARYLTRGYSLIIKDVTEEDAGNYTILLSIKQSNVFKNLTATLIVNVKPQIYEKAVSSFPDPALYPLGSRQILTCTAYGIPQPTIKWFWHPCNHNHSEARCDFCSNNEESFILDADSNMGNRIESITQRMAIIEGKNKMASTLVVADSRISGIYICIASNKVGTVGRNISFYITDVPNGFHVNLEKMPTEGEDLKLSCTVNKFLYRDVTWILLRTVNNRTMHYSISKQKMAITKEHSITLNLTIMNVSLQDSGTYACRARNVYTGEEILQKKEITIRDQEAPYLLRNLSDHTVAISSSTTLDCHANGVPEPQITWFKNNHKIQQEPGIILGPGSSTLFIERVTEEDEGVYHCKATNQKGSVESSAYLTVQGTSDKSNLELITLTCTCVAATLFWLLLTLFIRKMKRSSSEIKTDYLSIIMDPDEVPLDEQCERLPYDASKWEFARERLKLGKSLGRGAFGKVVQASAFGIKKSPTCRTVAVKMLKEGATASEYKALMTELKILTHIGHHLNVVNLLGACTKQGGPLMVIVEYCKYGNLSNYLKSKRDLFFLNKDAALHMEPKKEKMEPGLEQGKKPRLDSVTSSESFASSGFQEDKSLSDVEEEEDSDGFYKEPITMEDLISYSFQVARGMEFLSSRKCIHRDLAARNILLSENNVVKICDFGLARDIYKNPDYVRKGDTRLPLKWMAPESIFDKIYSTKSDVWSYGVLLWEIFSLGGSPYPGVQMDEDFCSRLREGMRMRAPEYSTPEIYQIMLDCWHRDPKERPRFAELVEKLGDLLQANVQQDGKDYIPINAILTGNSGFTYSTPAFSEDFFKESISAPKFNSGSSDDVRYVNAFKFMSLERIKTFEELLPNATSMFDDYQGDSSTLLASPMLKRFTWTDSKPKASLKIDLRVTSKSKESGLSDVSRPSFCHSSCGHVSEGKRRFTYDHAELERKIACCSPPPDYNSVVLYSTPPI
Sequence of SRC (human) (P12931 whole entry, looked up): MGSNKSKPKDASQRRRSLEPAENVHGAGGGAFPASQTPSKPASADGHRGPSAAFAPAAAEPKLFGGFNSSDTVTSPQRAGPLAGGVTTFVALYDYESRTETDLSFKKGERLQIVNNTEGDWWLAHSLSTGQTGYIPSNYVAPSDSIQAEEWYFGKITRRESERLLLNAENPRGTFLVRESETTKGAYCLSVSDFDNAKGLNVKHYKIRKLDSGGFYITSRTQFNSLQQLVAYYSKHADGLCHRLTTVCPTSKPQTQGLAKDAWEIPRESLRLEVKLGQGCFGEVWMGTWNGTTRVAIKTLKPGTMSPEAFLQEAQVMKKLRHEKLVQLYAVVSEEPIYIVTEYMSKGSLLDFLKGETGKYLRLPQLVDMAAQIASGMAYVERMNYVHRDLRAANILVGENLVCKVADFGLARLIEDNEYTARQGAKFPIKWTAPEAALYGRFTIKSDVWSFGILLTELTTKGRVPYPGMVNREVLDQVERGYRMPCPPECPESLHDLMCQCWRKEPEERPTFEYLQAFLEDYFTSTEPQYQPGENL
Sequence of FGFR1 (human) (P11362 whole entry, looked up): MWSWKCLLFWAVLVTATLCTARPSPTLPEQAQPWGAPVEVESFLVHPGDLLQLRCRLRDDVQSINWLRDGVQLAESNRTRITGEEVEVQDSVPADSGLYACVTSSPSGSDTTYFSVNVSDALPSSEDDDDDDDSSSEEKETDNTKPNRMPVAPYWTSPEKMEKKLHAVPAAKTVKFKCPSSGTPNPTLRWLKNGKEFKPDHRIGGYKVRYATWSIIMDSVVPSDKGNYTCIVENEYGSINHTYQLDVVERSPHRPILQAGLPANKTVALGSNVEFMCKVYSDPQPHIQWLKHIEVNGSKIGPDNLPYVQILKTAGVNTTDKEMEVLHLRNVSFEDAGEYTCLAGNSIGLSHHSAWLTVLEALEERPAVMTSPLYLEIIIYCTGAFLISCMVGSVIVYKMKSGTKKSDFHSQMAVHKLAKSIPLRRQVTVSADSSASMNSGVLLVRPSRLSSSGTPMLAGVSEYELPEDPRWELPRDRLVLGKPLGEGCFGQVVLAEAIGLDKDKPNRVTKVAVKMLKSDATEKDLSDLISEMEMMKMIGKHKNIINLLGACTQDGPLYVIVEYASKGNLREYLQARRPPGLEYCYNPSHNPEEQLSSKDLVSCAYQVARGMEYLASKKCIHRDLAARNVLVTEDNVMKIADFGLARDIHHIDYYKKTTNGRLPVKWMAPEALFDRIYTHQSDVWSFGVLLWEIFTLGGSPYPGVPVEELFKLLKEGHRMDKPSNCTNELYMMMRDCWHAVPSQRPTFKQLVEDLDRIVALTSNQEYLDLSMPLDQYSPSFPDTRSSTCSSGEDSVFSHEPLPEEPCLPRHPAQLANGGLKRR
Sequence of MAP3K1 (human) (Q13233 whole entry, looked up): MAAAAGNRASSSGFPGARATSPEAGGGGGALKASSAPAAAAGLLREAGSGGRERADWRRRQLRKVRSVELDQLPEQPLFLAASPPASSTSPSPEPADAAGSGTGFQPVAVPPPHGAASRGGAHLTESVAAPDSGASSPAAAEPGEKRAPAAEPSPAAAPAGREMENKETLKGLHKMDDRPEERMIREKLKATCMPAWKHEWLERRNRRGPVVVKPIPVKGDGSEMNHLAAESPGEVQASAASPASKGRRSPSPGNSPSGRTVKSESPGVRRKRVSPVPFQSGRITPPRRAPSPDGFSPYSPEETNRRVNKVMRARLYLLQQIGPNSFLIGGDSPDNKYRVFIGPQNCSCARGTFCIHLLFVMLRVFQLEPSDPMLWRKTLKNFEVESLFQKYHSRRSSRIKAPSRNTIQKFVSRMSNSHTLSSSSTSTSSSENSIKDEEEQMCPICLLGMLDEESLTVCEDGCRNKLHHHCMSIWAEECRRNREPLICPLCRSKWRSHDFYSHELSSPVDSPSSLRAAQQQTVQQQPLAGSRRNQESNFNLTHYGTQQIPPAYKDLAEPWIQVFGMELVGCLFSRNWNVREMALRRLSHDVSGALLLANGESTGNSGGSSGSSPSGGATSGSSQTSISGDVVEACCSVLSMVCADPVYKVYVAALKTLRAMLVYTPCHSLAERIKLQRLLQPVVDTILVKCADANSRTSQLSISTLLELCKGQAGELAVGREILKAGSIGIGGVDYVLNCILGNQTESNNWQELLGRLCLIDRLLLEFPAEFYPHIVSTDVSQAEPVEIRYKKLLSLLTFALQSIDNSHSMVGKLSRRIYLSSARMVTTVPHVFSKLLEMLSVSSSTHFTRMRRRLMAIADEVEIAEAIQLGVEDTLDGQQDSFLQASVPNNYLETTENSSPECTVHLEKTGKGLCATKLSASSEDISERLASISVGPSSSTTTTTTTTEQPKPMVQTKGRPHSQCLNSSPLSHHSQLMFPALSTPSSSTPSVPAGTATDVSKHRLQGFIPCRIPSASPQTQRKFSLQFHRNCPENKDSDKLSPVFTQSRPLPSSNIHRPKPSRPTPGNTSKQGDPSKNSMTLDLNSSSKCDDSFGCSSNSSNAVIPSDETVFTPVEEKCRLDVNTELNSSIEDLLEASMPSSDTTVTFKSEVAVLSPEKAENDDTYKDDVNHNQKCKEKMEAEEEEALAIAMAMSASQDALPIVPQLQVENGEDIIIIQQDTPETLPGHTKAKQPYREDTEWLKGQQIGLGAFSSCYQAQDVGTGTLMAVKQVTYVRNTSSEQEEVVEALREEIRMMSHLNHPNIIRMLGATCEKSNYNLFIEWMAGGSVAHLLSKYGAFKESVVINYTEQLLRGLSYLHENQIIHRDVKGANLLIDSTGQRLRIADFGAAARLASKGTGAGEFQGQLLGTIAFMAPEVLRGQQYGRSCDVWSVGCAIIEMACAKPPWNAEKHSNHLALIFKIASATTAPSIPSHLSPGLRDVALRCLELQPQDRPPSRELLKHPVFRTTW
Sequence of YES1 (human) (P07947 whole entry, looked up): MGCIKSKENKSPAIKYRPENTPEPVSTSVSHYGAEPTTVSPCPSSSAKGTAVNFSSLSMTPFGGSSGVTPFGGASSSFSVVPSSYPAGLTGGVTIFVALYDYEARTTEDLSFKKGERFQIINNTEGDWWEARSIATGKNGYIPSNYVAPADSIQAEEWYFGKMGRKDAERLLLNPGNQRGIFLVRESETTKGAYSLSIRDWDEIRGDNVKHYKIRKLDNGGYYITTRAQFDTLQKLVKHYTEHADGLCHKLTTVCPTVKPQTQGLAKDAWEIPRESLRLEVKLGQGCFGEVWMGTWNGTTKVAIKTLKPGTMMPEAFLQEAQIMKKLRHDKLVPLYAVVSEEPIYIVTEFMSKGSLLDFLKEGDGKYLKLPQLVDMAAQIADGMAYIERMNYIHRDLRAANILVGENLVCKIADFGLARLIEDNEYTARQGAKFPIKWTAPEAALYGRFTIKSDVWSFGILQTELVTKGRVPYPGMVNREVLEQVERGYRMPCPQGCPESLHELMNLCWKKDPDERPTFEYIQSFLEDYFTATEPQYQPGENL
Sequence of AURKB (human) (Q96GD4 whole entry, looked up): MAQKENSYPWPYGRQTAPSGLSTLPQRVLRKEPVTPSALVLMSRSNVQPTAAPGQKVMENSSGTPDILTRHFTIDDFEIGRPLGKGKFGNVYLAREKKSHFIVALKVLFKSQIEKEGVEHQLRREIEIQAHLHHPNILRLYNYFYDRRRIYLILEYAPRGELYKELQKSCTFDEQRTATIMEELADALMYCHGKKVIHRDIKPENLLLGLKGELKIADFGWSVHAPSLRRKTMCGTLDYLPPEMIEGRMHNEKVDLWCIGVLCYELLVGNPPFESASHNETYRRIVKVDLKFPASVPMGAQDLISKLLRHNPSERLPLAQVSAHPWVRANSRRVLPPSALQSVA

In the case of `O=C(O)c1ccc(-c2c[nH]c3ncc(-c4ccccc4)cc23)cc1C1CCCC1`, the residual activity ([1]; compound 0.1 µM) is reported as 99%, the residual activity ([1]; compound 1.0 µM) is reported as 66% and the residual activity ([1]; compound 10.0 µM) is reported as 12%. It also gave a residual activity ([2]; compound 0.1 µM) of 89%, a residual activity ([2]; compound 1.0 µM) of 79% and a residual activity ([2]; compound 10.0 µM) of 46%. The residual activity ([3]; compound 0.1 µM) was 99%, the residual activity ([4]; compound 0.1 µM) was 92% and the residual activity ([5]; compound 0.1 µM) was 78%. For the same molecule, the residual activity ([6]; compound 0.1 µM) was 100%, the residual activity ([6]; compound 1.0 µM) was 103% and the residual activity ([6]; compound 10.0 µM) was 18%. For the same molecule, the residual activity ([7]; compound 0.1 µM) was 86%, the residual activity ([7]; compound 1.0 µM) was 98% and the residual activity ([7]; compound 10.0 µM) was 74%. For the same molecule, the residual activity ([8]; compound 0.1 µM) was 93%, the residual activity ([8]; compound 1.0 µM) was 102% and the residual activity ([8]; compound 10.0 µM) was 44%. It also gave a residual activity ([9]; compound 0.1 µM) of 70%, a residual activity ([9]; compound 1.0 µM) of 12% and a residual activity ([9]; compound 10.0 µM) of 3%. It also gave a residual activity ([10]; compound 0.1 µM) of 99%, a residual activity ([10]; compound 1.0 µM) of 77% and a residual activity ([10]; compound 10.0 µM) of 27%. It also gave a residual activity ([11]; compound 0.1 µM) of 100%, a residual activity ([12]; compound 0.1 µM) of 110% and a residual activity ([13]; compound 0.1 µM) of 70%. For the same molecule, the residual activity ([13]; compound 1.0 µM) was 58%, the residual activity ([13]; compound 10.0 µM) was 15% and the residual activity ([14]; compound 0.1 µM) was 118%. It also gave a residual activity ([14]; compound 1.0 µM) of 87%, a residual activity ([14]; compound 10.0 µM) of 62% and a residual activity ([15]; compound 0.1 µM) of 87%. It also gave a residual activity ([15]; compound 1.0 µM) of 38%, a residual activity ([15]; compound 10.0 µM) of 7% and a residual activity ([16]; compound 0.1 µM) of 73%. It also gave a residual activity ([17]; compound 0.1 µM) of 122%, a residual activity ([18]; compound 0.1 µM) of 87% and a residual activity ([18]; compound 1.0 µM) of 102%. It also gave a residual activity ([18]; compound 10.0 µM) of 87%, a residual activity ([19]; compound 0.1 µM) of 80% and a residual activity ([19]; compound 1.0 µM) of 46%. It also gave a residual activity ([19]; compound 10.0 µM) of 9%, a residual activity ([20]; compound 0.1 µM) of 86% and a residual activity ([20]; compound 1.0 µM) of 89%. For the same molecule, the residual activity ([21]; compound 0.1 µM) was 85%, the residual activity ([21]; compound 1.0 µM) was 32% and the residual activity ([21]; compound 10.0 µM) was 6%. The residual activity ([22]; compound 0.1 µM) was 98%, the residual activity ([23]; compound 0.1 µM) was 93% and the residual activity ([24]; compound 0.1 µM) was 76%. For the same molecule, the residual activity ([24]; compound 1.0 µM) was 31%, the residual activity ([24]; compound 10.0 µM) was 5% and the residual activity ([25]; compound 0.1 µM) was 94%. For the same molecule, the residual activity ([25]; compound 1.0 µM) was 78%, the residual activity ([25]; compound 10.0 µM) was 23% and the residual activity ([26]; compound 0.1 µM) was 120%. The residual activity ([26]; compound 1.0 µM) was 110%, the residual activity ([27]; compound 0.1 µM) was 100% and the residual activity ([27]; compound 1.0 µM) was 27%. The residual activity ([27]; compound 10.0 µM) was 8%, the residual activity ([28]; compound 0.1 µM) was 98% and the residual activity ([28]; compound 1.0 µM) was 63%. For the same molecule, the residual activity ([28]; compound 10.0 µM) was 15%, the residual activity ([29]; compound 0.1 µM) was 96% and the residual activity ([29]; compound 1.0 µM) was 105%. It also gave a residual activity ([29]; compound 10.0 µM) of 87%, a residual activity ([30]; compound 0.1 µM) of 94% and a residual activity ([31]; compound 0.1 µM) of 8%. The residual activity ([31]; compound 1.0 µM) was 3%, the residual activity ([31]; compound 10.0 µM) was 1% and the residual activity ([32]; compound 0.1 µM) was 100%. It also gave a residual activity ([32]; compound 1.0 µM) of 103%, a residual activity ([32]; compound 10.0 µM) of 61% and a residual activity ([33]; compound 0.1 µM) of 105%. The residual activity ([33]; compound 1.0 µM) was 93%, the residual activity ([33]; compound 10.0 µM) was 42% and the residual activity ([34]; compound 0.1 µM) was 112%. It also gave a residual activity ([34]; compound 1.0 µM) of 108%, a residual activity ([34]; compound 10.0 µM) of 79% and a residual activity ([35]; compound 0.1 µM) of 99%. For the same molecule, the residual activity ([36]; compound 0.1 µM) was 102%, the residual activity ([36]; compound 1.0 µM) was 103% and the residual activity ([36]; compound 10.0 µM) was 61%.

In the case of `COc1cc(O)c2c(c1)/C=C/C[C@H](O)[C@H](O)C(=O)/C=C\C[C@H](C)OC2=O`, the residual activity ([1]; compound 0.1 µM) is reported as 88%, the residual activity ([1]; compound 1.0 µM) is reported as 77% and the residual activity ([2]; compound 0.1 µM) is reported as 104%. The residual activity ([2]; compound 1.0 µM) was 91%, the residual activity ([3]; compound 0.1 µM) was 102% and the residual activity ([3]; compound 1.0 µM) was 98%. The residual activity ([4]; compound 0.1 µM) was 107%, the residual activity ([4]; compound 1.0 µM) was 92% and the residual activity ([5]; compound 1.0 µM) was 105%. It also gave a residual activity ([6]; compound 0.1 µM) of 100%, a residual activity ([6]; compound 1.0 µM) of 93% and a residual activity ([7]; compound 0.1 µM) of 86%. For the same molecule, the residual activity ([7]; compound 1.0 µM) was 84%, the residual activity ([8]; compound 0.1 µM) was 106% and the residual activity ([8]; compound 1.0 µM) was 43%. For the same molecule, the residual activity ([9]; compound 0.1 µM) was 102%, the residual activity ([9]; compound 1.0 µM) was 104% and the residual activity ([10]; compound 1.0 µM) was 87%. The residual activity ([11]; compound 0.1 µM) was 91%, the residual activity ([11]; compound 1.0 µM) was 95% and the residual activity ([12]; compound 0.1 µM) was 107%. The residual activity ([12]; compound 1.0 µM) was 86%, the residual activity ([13]; compound 0.1 µM) was 98% and the residual activity ([13]; compound 1.0 µM) was 82%. It also gave a residual activity ([14]; compound 0.1 µM) of 99%, a residual activity ([14]; compound 1.0 µM) of 114% and a residual activity ([15]; compound 0.1 µM) of 109%. It also gave a residual activity ([15]; compound 1.0 µM) of 75%, a residual activity ([16]; compound 0.1 µM) of 107% and a residual activity ([16]; compound 1.0 µM) of 90%. For the same molecule, the residual activity ([17]; compound 0.1 µM) was 87%, the residual activity ([17]; compound 1.0 µM) was 90% and the residual activity ([18]; compound 0.1 µM) was 108%. It also gave a residual activity ([18]; compound 1.0 µM) of 80%, a residual activity ([19]; compound 0.1 µM) of 109% and a residual activity ([19]; compound 1.0 µM) of 81%. For the same molecule, the residual activity ([20]; compound 0.1 µM) was 138%, the residual activity ([20]; compound 1.0 µM) was 65% and the residual activity ([21]; compound 0.1 µM) was 94%. For the same molecule, the residual activity ([21]; compound 1.0 µM) was 74%, the residual activity ([22]; compound 0.1 µM) was 103% and the residual activity ([22]; compound 1.0 µM) was 66%. It also gave a residual activity ([23]; compound 0.1 µM) of 12%, a residual activity ([23]; compound 1.0 µM) of 3% and a residual activity ([24]; compound 0.1 µM) of 102%. It also gave a residual activity ([24]; compound 1.0 µM) of 91%, a residual activity ([25]; compound 0.1 µM) of 102% and a residual activity ([25]; compound 1.0 µM) of 74%. For the same molecule, the residual activity ([26]; compound 1.0 µM) was 85%, the residual activity ([27]; compound 0.1 µM) was 95% and the residual activity ([27]; compound 1.0 µM) was 94%. It also gave a residual activity ([28]; compound 0.1 µM) of 8%, a residual activity ([28]; compound 1.0 µM) of 13% and a residual activity ([29]; compound 0.1 µM) of 105%. For the same molecule, the residual activity ([29]; compound 1.0 µM) was 99%, the residual activity ([30]; compound 0.1 µM) was 99% and the residual activity ([30]; compound 1.0 µM) was 81%. For the same molecule, the residual activity ([31]; compound 0.1 µM) was 121%, the residual activity ([31]; compound 1.0 µM) was 80% and the residual activity ([32]; compound 0.1 µM) was 103%. For the same molecule, the residual activity ([32]; compound 1.0 µM) was 65%, the residual activity ([33]; compound 1.0 µM) was 60% and the residual activity ([34]; compound 0.1 µM) was 114%. For the same molecule, the residual activity ([34]; compound 1.0 µM) was 92%, the residual activity ([35]; compound 0.1 µM) was 104% and the residual activity ([35]; compound 1.0 µM) was 110%. The residual activity ([36]; compound 0.1 µM) was 100% and the residual activity ([36]; compound 1.0 µM) was 87%.
